Measurements from PMC10945337 (Theranostics, 2024).
Read-outs that look alike come from different tables or passages of the source.

Tests used:
[1] = Whole-body planar and SPECT/CT imaging-based dosimetry of normal organs (kidneys, liver, parotid and submandibular glands); format: in vivo, human
[2] = test system: tumor lesions (bone metastases or lymph node metastases); assay: Whole-body planar and SPECT/CT imaging-based dosimetry of tumor lesions; format: in vivo, human; conditions: n = 17 tumor lesions
metastases = conditions: cited from earlier work
[3] = cited from earlier work
[4] = kidneys, mean ± SD, 6 mCRPC patients
[5] = liver, mean ± SD, 6 mCRPC patients
[6] = parotid gland, mean ± SD, 6 mCRPC patients
[7] = submandibular gland, mean ± SD, 6 mCRPC patients
[8] = bone metastases, ref Violet et al. [52]
[9] = lymph node metastases, ref Violet et al. [52]
[10] = all metastases, ref Okamoto et al. [53]

Molecule: [^177Lu]Lu-PSMA-617
- A (% injected A0), monoexponential curve-fitting parameter [1, 4]: 4.80 ± 1.94 % injected A0
- Absorbed dose [1, 4]: 0.545 ± 0.231 mGy/MBq
- Mean absorbed dose [1, 4]: 0.545 ± 0.231 Gy/GBq
- TIAC (time-integrated activity coefficient) [1, 4]: 1.59 ± 0.68 h
- λ, monoexponential curve-fitting parameter [1, 4]: 0.028 ± 0.011 h⁻¹
- A (% injected A0), monoexponential curve-fitting parameter [1, 5]: 2.28 ± 0.88 % injected A0
- Absorbed dose [1, 5]: 0.103 ± 0.057 mGy/MBq
- TIAC (time-integrated activity coefficient) [1, 5]: 1.65 ± 1.36 h
- λ, monoexponential curve-fitting parameter [1, 5]: 0.030 ± 0.009 h⁻¹
- A (% injected A0), monoexponential curve-fitting parameter [1, 6]: 0.53 ± 0.20 % injected A0
- Absorbed dose [1, 6]: 0.333 ± 0.194 mGy/MBq
- TIAC (time-integrated activity coefficient) [1, 6]: 0.13 ± 0.09 h
- λ, monoexponential curve-fitting parameter [1, 6]: 0.031 ± 0.005 h⁻¹
- Individual absorbed dose ([1]; patient 1 (pre-treatment N, C, L, R), kidneys): 0.666 mGy/MBq
- Individual absorbed dose ([1]; patient 1 (pre-treatment N, C, L, R), liver): 0.199 mGy/MBq
- Individual absorbed dose ([1]; patient 1 (pre-treatment N, C, L, R), parotid gland): 0.398 mGy/MBq
- Individual absorbed dose ([1]; patient 1 (pre-treatment N, C, L, R), submandibular gland): 0.309 mGy/MBq
- Individual absorbed dose ([1]; patient 2 (pre-treatment N, C, L, A, R), kidneys): 0.492 mGy/MBq
- Individual absorbed dose ([1]; patient 2 (pre-treatment N, C, L, A, R), liver): 0.138 mGy/MBq
- Individual absorbed dose ([1]; patient 2 (pre-treatment N, C, L, A, R), parotid gland): 0.150 mGy/MBq
- Individual absorbed dose ([1]; patient 2 (pre-treatment N, C, L, A, R), submandibular gland): 0.190 mGy/MBq
- Individual absorbed dose ([1]; patient 3 (pre-treatment N, C, L, A, R), kidneys): 0.906 mGy/MBq
- Individual absorbed dose ([1]; patient 3 (pre-treatment N, C, L, A, R), liver): 0.069 mGy/MBq
- Individual absorbed dose ([1]; patient 3 (pre-treatment N, C, L, A, R), parotid gland): 0.146 mGy/MBq
- Individual absorbed dose ([1]; patient 3 (pre-treatment N, C, L, A, R), submandibular gland): 0.112 mGy/MBq
- Individual absorbed dose ([1]; patient 4 (pre-treatment N, C, L, A, R), kidneys): 0.674 mGy/MBq
- Individual absorbed dose ([1]; patient 4 (pre-treatment N, C, L, A, R), liver): 0.125 mGy/MBq
- Individual absorbed dose ([1]; patient 4 (pre-treatment N, C, L, A, R), parotid gland): 0.703 mGy/MBq
- Individual absorbed dose ([1]; patient 4 (pre-treatment N, C, L, A, R), submandibular gland): 0.664 mGy/MBq
- Individual absorbed dose ([1]; patient 5 (pre-treatment N, C, L), kidneys): 0.252 mGy/MBq
- Individual absorbed dose ([1]; patient 5 (pre-treatment N, C, L), liver): 0.037 mGy/MBq
- Individual absorbed dose ([1]; patient 5 (pre-treatment N, C, L), parotid gland): 0.217 mGy/MBq
- Individual absorbed dose ([1]; patient 5 (pre-treatment N, C, L), submandibular gland): 0.178 mGy/MBq
- Individual absorbed dose ([1]; patient 6 (pre-treatment N, C, L, A), kidneys): 0.278 mGy/MBq
- Individual absorbed dose ([1]; patient 6 (pre-treatment N, C, L, A), liver): 0.049 mGy/MBq
- Individual absorbed dose ([1]; patient 6 (pre-treatment N, C, L, A), parotid gland): 0.387 mGy/MBq
- Individual absorbed dose ([1]; patient 6 (pre-treatment N, C, L, A), submandibular gland): 0.259 mGy/MBq
- A (% injected A0), monoexponential curve-fitting parameter [1, 7]: 0.41 ± 0.26 % injected A0
- Absorbed dose [1, 7]: 0.285 ± 0.180 mGy/MBq
- TIAC (time-integrated activity coefficient) [1, 7]: 0.06 ± 0.05 h
- λ, monoexponential curve-fitting parameter [1, 7]: 0.030 ± 0.007 h⁻¹
- Absorbed dose of the tumor lesions, range ([2]; 6 mCRPC patients): 0.42 - 12.91 Gy/GBq
- Mean absorbed dose of the tumor lesions ([2]; 6 mCRPC patients, mean ± SD): 2.59 ± 3.30 Gy/GBq
- Effective half-life in tumor lesions (mean) ([2]; mean ± SD): 35.3 ± 6.3 h
- Absorbed dose, range (metastases; [8]): 0.41-10.71 Gy/GBq
- Mean absorbed dose (metastases; [8]): 5.28 Gy/GBq
- Absorbed dose, range (metastases; [9]): 0.52-16.23 Gy/GBq
- Mean absorbed dose (metastases; [9]): 3.91 Gy/GBq
- Patients with grade 1 / 2 xerostomia ([3]; REALITY study, ref [16]): 20.9%
- Patients with grade 1 / 2 xerostomia ([3]; VISION study, ref [10]): 38.8%

Molecule: O=C([O-])CC[C@H](NC(=O)N[C@@H](CCCCNC(=O)CCCCCCC(=O)NCCCC[C@@H](NC(=O)[C@@H](Cc1ccccc1)NC(=O)[C@@H](Cc1ccc(O)c(I)c1)NC(=O)CC[C@H](C(=O)[O-])N1CCN(CC(=O)[O-])CCN(CC(=O)[O-])CCN(CC(=O)[O-])CC1)C(=O)[O-])C(=O)[O-])C(=O)[O-].[177Lu+3].[H+].[H+].[H+].[H+].[H+] [[^177Lu]Lu-PSMA I&T]
- Absorbed dose, range (metastases; [10]): 0.22 - 12.03 Gy/GBq
- Mean absorbed dose (metastases; [10]): 3.2 ± 2.6 Gy/GBq
